In patent US11208412B2 (DAEGU-GYEONGBUK MEDICAL INNOVATION FOUNDATION, priority 2017, dated 2021):

Assays:
Test in all cases: Kinase selectivity, DiscoverX scanMAX Kinase assay panel (% control)
Type in all cases: binding
[1] = biological target: T1, kinases of the scanMAX Kinase assay panel (Homo sapiens, UniProt Q9BXA7); details: kinase TSSK1B; 1 uM in DMSO
T1 construct: purchased DiscoverX Co. (contract measurement) scanMAX Kinase assay panel
T1 sequence (Q9BXA7 1-367): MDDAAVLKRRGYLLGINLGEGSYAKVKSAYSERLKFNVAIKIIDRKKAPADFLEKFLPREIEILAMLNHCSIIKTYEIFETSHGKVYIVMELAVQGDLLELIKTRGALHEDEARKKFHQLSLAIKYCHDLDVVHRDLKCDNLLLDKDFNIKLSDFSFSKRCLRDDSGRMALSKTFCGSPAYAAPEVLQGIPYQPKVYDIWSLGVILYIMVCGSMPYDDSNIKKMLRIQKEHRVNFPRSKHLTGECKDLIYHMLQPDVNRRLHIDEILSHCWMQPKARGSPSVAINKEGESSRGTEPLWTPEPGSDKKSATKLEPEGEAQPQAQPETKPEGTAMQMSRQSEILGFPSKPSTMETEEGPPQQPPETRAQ
Summary of the method: (§1)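 Compounds were tested at 1 uM (in DMSO) against each panel kinase. % control was calculated as (compound − positive control)/(negative control − positive control)×100, where the positive control gives 0% and DMSO gives 100%. Activity toward a kinase was called at % control <35%.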

[2] = biological target: T2, kinases of the scanMAX Kinase assay panel (Homo sapiens, UniProt P37173); details: kinase TGFBR2; 1 uM in DMSO
T2 construct: purchased DiscoverX Co. (contract measurement) scanMAX Kinase assay panel
Summary of the method: as §1

[3] = biological target: T3, kinases of the scanMAX Kinase assay panel (Homo sapiens, UniProt Q08881); details: ITK; 1 uM
T3 construct: purchased DiscoverX Co. (contract measurement) scanMAX Kinase assay panel
T3 sequence (Q08881 1-620): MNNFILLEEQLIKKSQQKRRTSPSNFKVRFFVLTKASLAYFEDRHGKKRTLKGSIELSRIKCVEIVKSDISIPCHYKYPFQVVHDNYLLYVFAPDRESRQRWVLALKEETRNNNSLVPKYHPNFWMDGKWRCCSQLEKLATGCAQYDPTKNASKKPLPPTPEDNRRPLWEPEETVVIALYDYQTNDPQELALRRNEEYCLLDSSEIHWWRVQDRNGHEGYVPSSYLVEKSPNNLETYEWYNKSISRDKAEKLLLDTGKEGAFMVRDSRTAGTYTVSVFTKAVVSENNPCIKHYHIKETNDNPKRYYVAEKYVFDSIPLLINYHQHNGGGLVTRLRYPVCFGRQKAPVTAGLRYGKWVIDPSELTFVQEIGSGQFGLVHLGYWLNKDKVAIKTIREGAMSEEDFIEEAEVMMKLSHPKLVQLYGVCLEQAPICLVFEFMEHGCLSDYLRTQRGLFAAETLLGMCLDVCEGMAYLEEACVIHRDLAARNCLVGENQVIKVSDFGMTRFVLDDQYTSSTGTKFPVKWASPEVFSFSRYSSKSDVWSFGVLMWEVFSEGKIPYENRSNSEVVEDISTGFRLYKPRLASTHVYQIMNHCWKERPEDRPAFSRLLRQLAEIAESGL
Summary of the method: as §1

[4] = biological target: T4, kinases of the scanMAX Kinase assay panel (Homo sapiens, UniProt Q16659); details: ERK3; 1 uM
T4 construct: purchased DiscoverX Co. (contract measurement) scanMAX Kinase assay panel
Summary of the method: as §1

[5] = biological target: T5, kinases of the scanMAX Kinase assay panel (Homo sapiens, UniProt P54762); details: EPHB1; 1 uM
T5 construct: purchased DiscoverX Co. (contract measurement) scanMAX Kinase assay panel
T5 sequence (P54762 18-984): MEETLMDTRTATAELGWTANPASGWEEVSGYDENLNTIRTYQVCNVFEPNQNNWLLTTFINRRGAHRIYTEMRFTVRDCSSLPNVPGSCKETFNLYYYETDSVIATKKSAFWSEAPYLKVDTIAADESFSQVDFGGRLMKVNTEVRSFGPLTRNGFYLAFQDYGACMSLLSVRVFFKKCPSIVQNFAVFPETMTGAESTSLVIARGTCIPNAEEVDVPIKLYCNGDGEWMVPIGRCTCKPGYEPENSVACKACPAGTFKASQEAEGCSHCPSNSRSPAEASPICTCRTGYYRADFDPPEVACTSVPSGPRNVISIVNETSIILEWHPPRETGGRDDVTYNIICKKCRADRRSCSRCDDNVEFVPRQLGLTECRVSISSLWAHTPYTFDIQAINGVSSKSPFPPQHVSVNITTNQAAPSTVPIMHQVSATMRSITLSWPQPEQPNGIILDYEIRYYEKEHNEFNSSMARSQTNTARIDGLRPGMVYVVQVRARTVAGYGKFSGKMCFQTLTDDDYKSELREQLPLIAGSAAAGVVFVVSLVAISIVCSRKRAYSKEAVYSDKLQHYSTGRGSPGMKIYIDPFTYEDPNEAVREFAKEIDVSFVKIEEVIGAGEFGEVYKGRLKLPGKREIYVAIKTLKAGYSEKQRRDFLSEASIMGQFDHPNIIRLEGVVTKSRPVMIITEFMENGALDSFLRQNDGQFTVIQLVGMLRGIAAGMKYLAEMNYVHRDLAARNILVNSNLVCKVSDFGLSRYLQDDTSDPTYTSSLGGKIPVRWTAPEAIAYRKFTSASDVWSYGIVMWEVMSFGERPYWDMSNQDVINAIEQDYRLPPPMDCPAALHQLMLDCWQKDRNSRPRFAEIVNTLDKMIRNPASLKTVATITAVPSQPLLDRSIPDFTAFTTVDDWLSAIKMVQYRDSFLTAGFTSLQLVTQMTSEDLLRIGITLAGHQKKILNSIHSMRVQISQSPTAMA
Summary of the method: as §1

[6] = biological target: T6, kinases of the scanMAX Kinase assay panel (Homo sapiens, UniProt O14733); details: MKK7; 1 uM
T6 construct: purchased DiscoverX Co. (contract measurement) scanMAX Kinase assay panel
T6 sequence (O14733 1-419): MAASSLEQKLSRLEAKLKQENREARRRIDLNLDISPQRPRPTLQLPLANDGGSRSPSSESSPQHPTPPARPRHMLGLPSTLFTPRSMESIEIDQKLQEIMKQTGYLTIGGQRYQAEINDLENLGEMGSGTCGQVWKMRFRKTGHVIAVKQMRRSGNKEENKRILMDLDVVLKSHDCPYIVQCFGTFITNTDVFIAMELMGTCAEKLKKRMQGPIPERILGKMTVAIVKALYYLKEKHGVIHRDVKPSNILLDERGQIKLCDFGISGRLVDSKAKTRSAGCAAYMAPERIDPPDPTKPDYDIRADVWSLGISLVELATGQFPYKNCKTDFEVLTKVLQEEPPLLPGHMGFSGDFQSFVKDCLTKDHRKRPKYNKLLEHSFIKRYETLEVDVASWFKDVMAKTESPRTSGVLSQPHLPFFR
Summary of the method: as §1

T2 sequence (P37173 23-567): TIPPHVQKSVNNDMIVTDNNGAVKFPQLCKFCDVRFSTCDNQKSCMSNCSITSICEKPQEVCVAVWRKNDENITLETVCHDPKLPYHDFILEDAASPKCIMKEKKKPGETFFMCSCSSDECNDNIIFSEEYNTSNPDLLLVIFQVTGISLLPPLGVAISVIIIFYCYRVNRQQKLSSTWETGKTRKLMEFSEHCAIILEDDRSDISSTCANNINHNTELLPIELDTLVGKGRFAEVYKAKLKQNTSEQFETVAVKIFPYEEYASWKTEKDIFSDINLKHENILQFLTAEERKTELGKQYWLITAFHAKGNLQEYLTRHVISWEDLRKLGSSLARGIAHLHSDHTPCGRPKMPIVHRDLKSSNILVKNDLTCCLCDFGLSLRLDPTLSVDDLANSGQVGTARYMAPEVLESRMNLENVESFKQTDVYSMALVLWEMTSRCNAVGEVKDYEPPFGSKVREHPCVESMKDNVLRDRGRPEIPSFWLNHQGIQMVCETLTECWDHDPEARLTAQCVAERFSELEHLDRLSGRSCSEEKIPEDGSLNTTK
T4 sequence (Q16659 whole entry): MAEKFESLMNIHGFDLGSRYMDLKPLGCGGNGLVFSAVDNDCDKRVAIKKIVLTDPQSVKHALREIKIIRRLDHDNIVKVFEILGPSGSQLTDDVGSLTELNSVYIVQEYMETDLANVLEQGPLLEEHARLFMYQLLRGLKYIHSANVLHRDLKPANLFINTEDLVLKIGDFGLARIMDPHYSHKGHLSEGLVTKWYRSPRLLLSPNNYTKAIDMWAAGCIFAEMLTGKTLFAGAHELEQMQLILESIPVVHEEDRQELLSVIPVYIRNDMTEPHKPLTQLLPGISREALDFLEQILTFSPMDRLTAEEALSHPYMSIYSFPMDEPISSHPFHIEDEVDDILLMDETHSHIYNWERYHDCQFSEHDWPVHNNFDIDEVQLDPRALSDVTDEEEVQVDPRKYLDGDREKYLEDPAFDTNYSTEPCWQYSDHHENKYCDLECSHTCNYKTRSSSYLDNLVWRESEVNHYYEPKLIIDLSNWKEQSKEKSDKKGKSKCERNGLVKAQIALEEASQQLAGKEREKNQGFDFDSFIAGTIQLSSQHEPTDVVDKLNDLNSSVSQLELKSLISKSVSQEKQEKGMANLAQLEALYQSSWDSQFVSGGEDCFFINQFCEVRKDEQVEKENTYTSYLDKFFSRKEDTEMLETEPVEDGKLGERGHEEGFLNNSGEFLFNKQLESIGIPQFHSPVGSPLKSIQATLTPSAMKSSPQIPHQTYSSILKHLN

SMILES	remaining binding at 1 µM [1] [%]	remaining binding at 1 µM [2] [%]	remaining binding at 1 µM [3] [%]	remaining binding at 1 µM [4] [%]	remaining binding at 1 µM [5] [%]	remaining binding at 1 µM [6] [%]
CNc1nc(Nc2ccc(C(=O)N3CCOCC3)cc2OC)nc2[nH]cc(C#N)c12 [Example 1, 2-((2-methoxy-4-(morpholine-4-carbonyl)phenyl)amino)-4-(methylamino)-7H-pyrrolo[2,3-d]pyrimidine-5-carbonitrile]	22	82	99	89	100	48
CC1(Nc2nc(Nc3cnn([C@H]4CCN(C5COC5)C[C@@H]4F)c3Cl)nc3[nH]cc(C#N)c23)CC1 [Example 52, 2-((5-chloro-1-((3S,4S)-3-fluoro-1-(oxetane-3-yl)piperidine-4-yl)-1H-pyrazole-4-yl)amino)((1-methylcyclopropyl)amino)-7H-pyrrolo[2,3-d]pyrimidine-5-carbonitrile]	0.6	100	9.7	54	41	6.1
CCNc1nc(Nc2ccc(C(=O)N3CCC(N4CCOCC4)CC3)cc2OC)nc2[nH]cc(C(F)(F)F)c12 [Example 104, (4-((4-(ethylamino)-5-(trifluoromethyl)-7H-pyrrolo[2,3-d]pyrimidine-2-yl)amino)-3-methoxyphenyl)(4-morpholinopiperidine-1-yl)methanone]	0	96	100	95	100	100
